Laboratory results taken from the NIST ThermoML archive (doi:10.1021/je800110r).

Conditions: 293.15 K, Liquid, Vibrating tube method

CCCCCCCCCC [decane]
Conditions | mass density [kg/m3]
375 kPa | 730.1
394 kPa | 730.1
411 kPa | 730.1
427 kPa | 730.1
448 kPa | 730.1
469 kPa | 730.1
487 kPa | 730.1
510 kPa | 730.2
528 kPa | 730.3
551 kPa | 730.3
571 kPa | 730.3
605 kPa | 730.4
692 kPa | 730.3
760 kPa | 730.4
843 kPa | 730.5
898 kPa | 730.6
949 kPa | 730.5
998 kPa | 730.6
1057 kPa | 730.6
1102 kPa | 730.7
1141 kPa | 730.7
1165 kPa | 730.8
1196 kPa | 730.7
1214 kPa | 730.7
1243 kPa | 730.8
1266 kPa | 730.8
1302 kPa | 730.9
1332 kPa | 730.8
1362 kPa | 730.9
1397 kPa | 730.9
1430 kPa | 730.9
1459 kPa | 730.9
1493 kPa | 731
1535 kPa | 731.1
1567 kPa | 731.1
1623 kPa | 731
1669 kPa | 731.1
1712 kPa | 731.2
1762 kPa | 731.3
1802 kPa | 731.2
1843 kPa | 731.3
1915 kPa | 731.4
1974 kPa | 731.3
2021 kPa | 731.5
2094 kPa | 731.4
2187 kPa | 731.5
2240 kPa | 731.6
2295 kPa | 731.6
2363 kPa | 731.7
2423 kPa | 731.7
2496 kPa | 731.7
2561 kPa | 731.9
2629 kPa | 731.9
2700 kPa | 731.8
2720 kPa | 732.1
2731 kPa | 732
2742 kPa | 732
2755 kPa | 732
2770 kPa | 732
2785 kPa | 731.9
2795 kPa | 732
2813 kPa | 732
2824 kPa | 732
2834 kPa | 732
2851 kPa | 732.1
2884 kPa | 732
2939 kPa | 732.1
3009 kPa | 732.1
3026 kPa | 732.2
3040 kPa | 732.2
3052 kPa | 732.1
3064 kPa | 732.2
3077 kPa | 732.2
3094 kPa | 732.3
3109 kPa | 732.1
3122 kPa | 732.3
3136 kPa | 732.1
3147 kPa | 732.3
3155 kPa | 732.2
3188 kPa | 732.2
3283 kPa | 732.4
3344 kPa | 732.4
3442 kPa | 732.5
3479 kPa | 732.4
3494 kPa | 732.5
3506 kPa | 732.5
3529 kPa | 732.6
3551 kPa | 732.6
3564 kPa | 732.6
3584 kPa | 732.6
3599 kPa | 732.7
3619 kPa | 732.7
3635 kPa | 732.7
3653 kPa | 732.6
3672 kPa | 732.8
3690 kPa | 732.6
3705 kPa | 732.8
3719 kPa | 732.7
3735 kPa | 732.8
3748 kPa | 732.6
3764 kPa | 732.8
3781 kPa | 732.7
3793 kPa | 732.9
3810 kPa | 732.7
3829 kPa | 732.9
3842 kPa | 732.8
3861 kPa | 732.8
3881 kPa | 732.8
3894 kPa | 732.8
3916 kPa | 732.9
3929 kPa | 732.9
3952 kPa | 732.9
3964 kPa | 732.9
3984 kPa | 733
4001 kPa | 733
4012 kPa | 733
4029 kPa | 733
4046 kPa | 733
4060 kPa | 733
4084 kPa | 733
4099 kPa | 733
4117 kPa | 733
4130 kPa | 733.1
4150 kPa | 733.2
4166 kPa | 733
4190 kPa | 733
4211 kPa | 733
4226 kPa | 733.1
4247 kPa | 733.1
4269 kPa | 733.3
4281 kPa | 733.1
4302 kPa | 733.2
4323 kPa | 733.1
4338 kPa | 733.2
4361 kPa | 733.3
4382 kPa | 733.2
